From patent publication US20230203098A1, “HUMAN TRANSFERRIN RECEPTOR BINDING PEPTIDE” (priority 2020, published 2023)
Read-outs that look alike come from different tables or passages of the source. Values belong to the compound of their own block, whether it stands above or below them. Where a SMILES comes first, the peptide text is derived from it. Bridges are numbered along the chain shown (N, C = ends). [ ]: non-standard residue; d: D form. NMePhe(3-Cl) = CN[C@@H](Cc1cccc(Cl)c1)C(=O)O; NMeW = CN[C@@H](Cc1c[nH]c2ccccc12)C(=O)O; Phe(4-Cl) = N[C@@H](Cc1ccc(Cl)cc1)C(=O)O; Lys(N3) = [N-]=[N+]=NCCCC[C@H](N)C(=O)O; NMeY = CN[C@@H](Cc1ccc(O)cc1)C(=O)O; NMeF = CN[C@@H](Cc1ccccc1)C(=O)O; Ahp(2) = CCCCC[C@H](N)C(=O)O; PEG4 = NCCOCCOCCOCCOCCC(=O)O; dOrn = NCCC[C@@H](N)C(=O)O

Biological target: transferrin receptor (hTfR) (Homo sapiens, UniProt P02786)
Sequence (P02786 whole entry): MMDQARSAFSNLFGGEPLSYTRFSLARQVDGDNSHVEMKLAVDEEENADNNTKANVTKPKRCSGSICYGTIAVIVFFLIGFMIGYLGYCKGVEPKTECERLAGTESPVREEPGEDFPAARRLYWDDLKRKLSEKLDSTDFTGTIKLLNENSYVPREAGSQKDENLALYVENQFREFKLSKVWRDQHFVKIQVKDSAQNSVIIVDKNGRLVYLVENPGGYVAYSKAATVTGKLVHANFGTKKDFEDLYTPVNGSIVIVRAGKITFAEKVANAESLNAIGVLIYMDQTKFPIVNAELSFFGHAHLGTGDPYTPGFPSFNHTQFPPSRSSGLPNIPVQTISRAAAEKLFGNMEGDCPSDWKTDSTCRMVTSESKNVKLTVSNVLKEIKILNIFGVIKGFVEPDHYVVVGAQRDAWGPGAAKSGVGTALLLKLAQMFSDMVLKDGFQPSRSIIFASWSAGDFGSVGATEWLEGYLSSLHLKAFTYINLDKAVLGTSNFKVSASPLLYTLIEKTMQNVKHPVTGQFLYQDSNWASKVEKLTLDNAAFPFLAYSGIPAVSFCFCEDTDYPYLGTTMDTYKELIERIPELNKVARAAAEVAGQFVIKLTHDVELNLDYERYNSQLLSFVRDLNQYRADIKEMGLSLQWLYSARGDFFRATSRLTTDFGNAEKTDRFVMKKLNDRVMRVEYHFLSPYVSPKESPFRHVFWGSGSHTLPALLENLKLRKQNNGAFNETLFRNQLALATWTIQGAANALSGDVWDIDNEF
Experiment: Intermolecular interaction evaluation test between transferrin receptor (hTfR) and peptide by surface plasmon resonance (SPR)
Type: binding
Method: For each of the various synthesized peptides, the intermolecular interaction of the peptide with the transferrin receptor (hTfR) was tested by surface plasmon resonance (SPR) according to the following method. The specific test method is as follows.
An NTA sensor chip (Global Life Sciences Technologies Japan) was inserted in a Biacore T200 (Global Life Sciences Technologies Japan) and a prime operation was performed 3 times with a running buffer: 10 mM HEPES pH 8.0 (Nacalai Tesque), 150 mM NaCl (Nacalai Tesque), 0.05% Tween 20 (Nacalai Tesque), 0.1% BSA (Sigma-Aldrich), 1.0% DMSO (FUJIFILM Wako Pure Chemical) to create an Equilibration state at a flow rate of 30 µL/min. After reacting with 350 mM EDTA solution for 60 seconds at a flow rate of 10 µL/min then reacting with 0.5 mM NiCl2 solution (Kishida Chemical) for 60 seconds at a flow rate of 10 µL/min, the NTA sensor chip was washed with 3 mM EDTA solution (Nacalai Tesque) for 60 seconds at a flow rate of 10 µL/min. After mixing 50 µL each of 60 mM EDC solution (Global Life Sciences Technologies Japan) and 650 mM NHS solution (Global Life Sciences Technologies Japan), the mixture was reacted for 420 seconds at a flow rate of 10 µL/min. By diluting with the running buffer, 150 µL of 3.2 µM hTfR solution was prepared and used for reaction for 600 seconds at a flow rate of 10 µL/min, thereby immobilizing hTfR on the NTA sensor chip. After immobilization, capping was performed by reacting with 1.0 M ethanolamine aqueous solution (Global Life Sciences Technologies Japan) for 420 seconds at a flow rate of 10 µL/min. A peptide dissolution liquid prepared to 10 mM in the DMSO solution was diluted with the running buffer to a final concentration of 10 µM so as to become the peptide dissolution liquid, then peptide solutions of 100 nM, 50 nM, 25 nM, 10 nM and 5 nM were prepared. Kinetics of the peptide to hTfR was acquired by SPR measurement using the above-mentioned samples. Single-cycle kinetics was used as a kinetic evaluation model and curve fitting was performed using Biacore T200 Evaluation Software Version 3.0 (Global Life Sciences Technologies Japan). An obtained sensorgram was subjected to curve fitting using the least-squares method, and the binding of the peptide to hTfR was evaluated by obtaining KD values. […] A chemical structure of hTfR No. 894 is as follows.
The variant peptides were synthesized according to Example 1 unless otherwise stated in Example 9 or 10. The linker-added peptides were synthesized according to Example 1, except that Fmoc-NH-SAL-PEG resin (Watanabe Chemical Industries) was used as a resin for the peptide synthesis when the linker was PEG. The peptide, to which a peptide, a fatty acid, PEG, or a conjugate thereof is added as a linker, was also synthesized according to Example 1, unless otherwise stated in Example 9 or 10.

[1] = surface plasmon resonance, hTfR, read-out: KD value for hTfR by SPR (class symbol)
[2] = binding to hTfR by SPR, Table 2 peptides, read-out: KD value (SPR) class
[3] = surface plasmon resonance, peptide vs hTfR, read-out: KD value, hTfR binding by SPR (class symbol)

SMILES: CC[C@H](C)[C@@H]1NC(=O)[C@H](Cc2ccc(OC)cc2)NC(=O)[C@H](Cc2ccc(O)cc2)NC(=O)[C@H](CC(N)=O)NC(=O)[C@H](Cc2c[nH]c3ccccc23)N(C)C(=O)[C@H](C(C)C)NC(=O)[C@H](Cc2cccc(Cl)c2)N(C)C(=O)[C@H](C(C)C)NC(=O)[C@H](C)NC(=O)CSC[C@@H](C(=O)N[C@H](CCC(=O)O)C(=O)N[C@H](CCC(=O)O)C(N)=O)NC(=O)[C@H](Cc2ccc(O)cc2)N(C)C(=O)[C@H](Cc2ccccc2)NC(=O)[C@@H](CCCNC(=N)N)NC(=O)C(C)(C)NC(=O)[C@H]([C@@H](C)CC)NC1=O [compound 356]
- Kd [1]: 1 to 100 nM

SMILES: CC[C@H](C)[C@@H]1NC(=O)[C@H](Cc2ccc(O)cc2)NC(=O)[C@H](Cc2ccc(O)cc2)NC(=O)[C@H](CC(N)=O)NC(=O)[C@H](Cc2c[nH]c3ccccc23)NC(=O)[C@H](C(C)C)NC(=O)[C@H](Cc2ccccc2)N(C)C(=O)[C@H](C(C)C)NC(=O)[C@H](C)NC(=O)CSC[C@@H](C(=O)NCCOCCOCCOCCOCCOCCOCCOCCOCCOCCOCCOCCOCCC(N)=O)NC(=O)[C@H](CCC(=O)O)NC(=O)[C@H](Cc2ccc(O)cc2)NC(=O)[C@H](CCCNC(=N)N)NC(=O)[C@H](CCCNC(=N)N)NC(=O)[C@H]([C@@H](C)CC)NC1=O [compound 124]
- Kd (SPR, hTfR No. 894 variants with PEG12c linker (Table 2), read-out: KD): 100 to 1000 nM

SMILES: CC[C@H](C)[C@@H]1NC(=O)[C@H](Cc2ccc(O)cc2)NC(=O)[C@H](Cc2ccc(Cl)cc2)NC(=O)[C@H](CC(N)=O)NC(=O)[C@H](Cc2c[nH]c3ccccc23)NC(=O)[C@H](C(C)C)NC(=O)[C@H](Cc2ccccc2)N(C)C(=O)[C@H](C(C)C)NC(=O)[C@H](C)NC(=O)CSC[C@@H](C(=O)NCC(=O)N[C@@H](CCCCN=[N+]=[N-])C(N)=O)NC(=O)[C@H](Cc2ccc(O)cc2)N(C)C(=O)[C@H](Cc2ccc(O)cc2)NC(=O)[C@H](CCCNC(=N)N)NC(=O)[C@H](CCCNC(=N)N)NC(=O)[C@H]([C@@H](C)CC)NC1=O [compound 277] ({CH2CO}-AV[NMeF]VWN[Phe(4-Cl)]YIIRRY[NMeY]CG[Lys(N3)]-NH2; thioether N-15)
- Kd [2]: 100 to 1000 nM

SMILES: CC[C@H](C)[C@@H]1NC(=O)[C@H](Cc2ccc(O)cc2)NC(=O)[C@H](Cc2ccc(O)cc2)NC(=O)[C@H](CC(N)=O)NC(=O)[C@H](Cc2c[nH]c3ccccc23)NC(=O)[C@H](C(C)C)NC(=O)[C@H](Cc2ccccc2)NC(=O)[C@H](C(C)C)NC(=O)[C@H](C)NC(=O)CSC[C@@H](C(N)=O)NC(=O)[C@H](Cc2ccc(O)cc2)N(C)C(=O)[C@H](Cc2ccc(O)cc2)NC(=O)[C@H](CCCCN)NC(=O)[C@H](CCCNC(=N)N)NC(=O)[C@H]([C@@H](C)CC)NC1=O [compound 258]
- Kd [2]: 1 to 100 nM

SMILES: CC[C@H](C)[C@@H]1NC(=O)[C@H](Cc2ccc(OCC(=O)O)cc2)NC(=O)[C@H](Cc2ccc(O)cc2)NC(=O)[C@H](CC(N)=O)NC(=O)[C@H](Cc2c[nH]c3ccccc23)N(C)C(=O)[C@H](C(C)C)NC(=O)[C@H](Cc2cccc(Cl)c2)N(C)C(=O)[C@H](C(C)C)NC(=O)[C@H](C)NC(=O)CSC[C@@H](C(N)=O)NC(=O)[C@H](Cc2ccc(O)cc2)N(C)C(=O)[C@H](Cc2ccccc2)NC(=O)[C@@H](CCCNC(=N)N)NC(=O)C(C)(C)NC(=O)[C@H]([C@@H](C)CC)NC1=O [compound 324]
- Kd [3]: > 1000 nM

SMILES: CC[C@H](C)[C@@H]1NC(=O)[C@H](Cc2ccc(O)cc2)NC(=O)[C@H](Cc2ccc(O)cc2)NC(=O)[C@H](CC(N)=O)NC(=O)[C@H](Cc2c[nH]c3ccccc23)N(C)C(=O)[C@H](C(C)C)NC(=O)[C@H](Cc2cccc(Cl)c2)N(C)C(=O)[C@H](C(C)C)NC(=O)[C@H](C)NC(=O)CSC[C@@H](C(=O)NCCOCCOCCOCCOCCC(N)=O)NC(=O)[C@H](Cc2ccc(O)cc2)N(C)C(=O)[C@H](Cc2ccccc2)NC(=O)[C@@H](CCCNC(=N)N)NC(=O)C(C)(C)NC(=O)[C@H]([C@@H](C)CC)NC1=O [compound 322]
- Kd [3]: 1 to 100 nM

SMILES: CC[C@H](C)[C@@H]1NC(=O)[C@H](Cc2ccc(OC)cc2)NC(=O)[C@H](Cc2ccc(O)cc2)NC(=O)[C@H](CC(N)=O)NC(=O)[C@H](Cc2c[nH]c3ccccc23)N(C)C(=O)[C@H](C(C)C)NC(=O)[C@H](Cc2cccc(Cl)c2)N(C)C(=O)[C@H](CCC(=O)O)NC(=O)[C@H](C)NC(=O)CSC[C@@H](C(N)=O)NC(=O)[C@H](CCC(=O)O)NC(=O)[C@H](CCCNC(=N)N)NC(=O)[C@@H]2CCCN2C(=O)[C@H](C(C)C)NC1=O [compound 206] ({CH2CO}-AE[NMePhe(3-Cl)]V[NMeW]NYY(Me)IVPREC-NH2; thioether N-14)
- Kd (SPR, peptides, linker-added peptides and FITC conjugates, Patent ID 203-230, read-out: KD): 1 to 100 nM

Other lines, results leading:

- Kd (SPR, hTfR, class symbols A-D, read-out: KD): 1 to 100 nM
SMILES: CC[C@H](C)[C@@H]1NC(=O)[C@H](Cc2ccc(OC)cc2)NC(=O)[C@H](Cc2ccc(O)cc2)NC(=O)[C@H](CC(N)=O)NC(=O)[C@H](Cc2c[nH]c3ccccc23)N(C)C(=O)[C@H](C(C)C)NC(=O)[C@H](Cc2cccc(Cl)c2)N(C)C(=O)[C@H](C(C)C)NC(=O)[C@H](C)NC(=O)CSC[C@@H](C(N)=O)NC(=O)[C@H](Cc2ccc(O)cc2)N(C)C(=O)[C@H](Cc2cccc(C(=O)O)c2)NC(=O)[C@@H](CCCNC(=N)N)NC(=O)[C@H](CCCNC(=N)N)NC(=O)[C@H]([C@@H](C)CC)NC1=O [compound 461]

- Kd (surface plasmon resonance, peptide vs hTfR, read-out: KD value for hTfR by SPR (class symbol)): 1 to 100 nM
SMILES: CC[C@H](C)[C@@H]1NC(=O)[C@H](Cc2ccc(O)cc2)NC(=O)[C@H](Cc2ccc(O)cc2)NC(=O)[C@H](CC(N)=O)NC(=O)[C@H](Cc2c[nH]c3ccccc23)N(C)C(=O)[C@H](C(C)C)NC(=O)[C@H](Cc2cccc(Cl)c2)N(C)C(=O)[C@@H]2CCC(=O)NCC(=O)NCCCC[C@H](NC(=O)[C@H]([C@@H](C)CC)NC1=O)C(=O)N[C@@H](CCCNC(=N)N)C(=O)N[C@@H](Cc1ccc(O)cc1)C(=O)N(C)[C@@H](Cc1ccc(O)cc1)C(=O)N[C@H](C(N)=O)CSCC(=O)N[C@@H](C)C(=O)N2 [compound 417]

- Kd [1]: 1 to 100 nM
SMILES: CCCCC[C@@H]1NC(=O)[C@H]([C@@H](C)CC)NC(=O)[C@H]([C@@H](C)CC)NC(=O)[C@H](Cc2ccc(OC)cc2)NC(=O)[C@H](Cc2ccc(O)cc2)NC(=O)[C@H](CC(N)=O)NC(=O)[C@H](Cc2c[nH]c3ccccc23)N(C)C(=O)[C@H](C(C)C)NC(=O)[C@H](Cc2cccc(Cl)c2)N(C)C(=O)[C@H](C(C)C)NC(=O)[C@H](C)NC(=O)CSC[C@@H](C(=O)NCCOCCOCCOCCOCCC(N)=O)NC(=O)[C@H](Cc2ccc(O)cc2)N(C)C(=O)[C@H](Cc2ccccc2)NC(=O)[C@@H](CCCNC(=N)N)NC1=O [compound 362] ({CH2CO}-AV[NMePhe(3-Cl)]V[NMeW]NYY(Me)II[Ahp(2)][dR]F[NMeY]C[PEG4]-NH2; thioether N-15)

- Kd [1]: 1 to 100 nM
SMILES: CC[C@H](C)[C@@H]1NC(=O)[C@H](Cc2ccc(OC)cc2)NC(=O)[C@H](Cc2ccc(O)cc2)NC(=O)[C@H](CC(N)=O)NC(=O)[C@H](Cc2c[nH]c3ccccc23)N(C)C(=O)[C@H](C(C)C)NC(=O)[C@H](Cc2cccc(Cl)c2)N(C)C(=O)[C@H](C(C)C)NC(=O)[C@H](C)NC(=O)CSC[C@@H](C(N)=O)NC(=O)[C@H](Cc2ccc(O)cc2)N(C)C(=O)[C@H](Cc2ccccc2)NC(=O)[C@H](CCCNC(=N)N)NC(=O)[C@H](CCCNC(=N)N)N(C)C(=O)[C@H]([C@@H](C)CC)NC1=O [compound 381]

- Kd [1]: 1 to 100 nM
SMILES: CC[C@H](C)[C@@H]1NC(=O)[C@H](Cc2ccc(OC)cc2)NC(=O)[C@H](Cc2ccc(O)cc2)NC(=O)[C@H](CC(N)=O)NC(=O)[C@H](Cc2c[nH]c3ccccc23)N(C)C(=O)[C@H](C(C)C)NC(=O)[C@H](Cc2cccc(Cl)c2)N(C)C(=O)[C@H](C(C)C)NC(=O)[C@H](C)NC(=O)CSC[C@@H](C(=O)NCCOCCOCCOCCOCCC(N)=O)NC(=O)[C@H](Cc2ccc(O)cc2)N(C)C(=O)[C@H](Cc2ccccc2)NC(=O)[C@@H](CCCNC(=N)N)NC(=O)[C@@H](CCCN)NC(=O)[C@H]([C@@H](C)CC)NC1=O [compound 368] ({CH2CO}-AV[NMePhe(3-Cl)]V[NMeW]NYY(Me)II[dOrn][dR]F[NMeY]C[PEG4]-NH2; thioether N-15)
